Test results published in US12440581B2, “Fluorophores for super-resolution imaging” (HOWARD HUGHES MEDICAL INSTITUTE, priority 2019, dated 2025).

Legend:
HaloTag protein = HaloTag protein (Rhodococcus rhodochrous, UniProt P0A3G2, A155T/A167V/A172T/A224E/C128F/C176G/D78G/E160K/E257K/H272N/K175M/K195N/L47V/L88M/N227D/P291S/S2A/S58T/T264A/Y273L/Y87F); assay: Increase in absorption of HaloTag ligands following attachment to HaloTag protein; format: biochemical; conditions: 5 μM ligand, 1.5 equiv HaloTag protein
Procedure: Measurement of increase in absorption of HaloTag ligands 1HTL-10HTL following attachment to HaloTag protein. HaloTag protein was prepared as a 100 μM solution in 75 mM NaCl, 50 mM TRIS·HCl, pH 7.4. Absorption measurements were performed in 1.0-mL quartz cuvettes. HaloTag ligands (5 μM) were dissolved in 10 mM HEPES, pH 7.3 containing 0.1 mg/mL CHAPS. An aliquot of HaloTag protein (75 μL, 7.5 μM, 1.5 equiv) or an equivalent volume of buffer (75 mM NaCl, 50 mM TRIS·HCl, pH 7.4) was added and the resulting mixture was incubated until a consistent absorption signal was observed (˜60 min). Absorption scans are averages (n=2).

histone H2B-SNAP-tag = assay: Comparison of SNAP ligands 7STL and 10STL in live cells (no-wash); format: cell-based; conditions: 1 μM, 1 h
From the text: Comparison of SNAP ligands 7STL and 10STL in live cells.

[1] = Determination KL-Z and εmax; format: physicochemical
Procedure: Determination KL-Z and εmax. The lactone-zwitterion equilibrium constant (KL-Z) was calculated as described previously^18,41 using equation 1: KL-Z=(εdw/εmax)/(1−εdw/εmax) (1) • where εdw is the extinction coefficient of the dyes in a 1:1 (v/v) dioxane:water solvent mixture containing 0.01% (v/v) triethylamine; the dioxane-water mixture was chosen to give a large range of KL-Z values and the triethylamine additive ensures the rhodamines are in the net neutral form. The emax (maximal extinction coefficient) values were measured in 0.1% (v/v) trifluoroacetic acid (TFA) in 2,2,2-trifluoroethanol (TFE) for rhodaminc 10, and 0.1% (v/v) TFA in ethanol for the Si-rhodamine 8.
Instead, a solution of strong acid in alcoholic solvents was used (e.g., TFA in […]) to shift the equilibrium to the open form by protonation of the o-carboxyl group. This decades-old procedure^36 allows estimation of the maximal extinction coefficient (εmax) and determination of KL-Z=(ε/εmax)/(1−ε/εmax).
The KL-Z was determined using ε values measured in 1:1 dioxane:water to ensure a broad distribution of values.^18 An inverse relationship was observed between KL-Z and fluorogenicity, showing that KL-Z is sufficient to accurately predict the increase in fluorescence of rhodamine dyes. This increase in fluorescence is primarily driven by the increase in absorption; chromogenicity is correlated both with KL-Z and fluorogenicity (FIGS. 11E-11J). Importantly, this trend holds across different rhodamine scaffolds including Si-rhodamines (1-3), carborhodamines (4-5), and classic, oxygen-containing rhodamines (6-7, FIG. 1C). Based on this inverse relationship a simple rubric was determined: a dye with KL-Z<10^−2 should yield a HaloTag ligand with at least 10-fold fluorogenicity (FIG. 1E).

histone H2B-HaloTag = assay: Comparison of HaloTag ligands 7HTL and 10HTL in live cells (no-wash); format: cell-based; conditions: 500 nM, 30 min
From the text: Comparison of HaloTag ligands 7HTL and 10HTL in live cells.

[2] = Quantum yield determination; format: physicochemical; conditions: absolute, integrating sphere
Procedure: Quantum yield determination. All reported absolute fluorescence quantum yield values (Φ) were measured in the laboratory under identical conditions using a Quantaurus-QY spectrometer (model C11374, Hamamatsu). This instrument uses an integrating sphere to determine photons absorbed and emitted by a sample. Measurements were carried out using dilute samples (A<0.1) and self-absorption corrections were performed using the instrument software^57 when appropriate. Reported values are averages (n=3).

[3] = UV-vis and fluorescence spectroscopy; format: physicochemical; conditions: 10 mM HEPES, pH 7.3
Procedure: UV-vis and fluorescence spectroscopy. […] Spectroscopy was performed using 1-cm path length, 3.5-mL quartz cuvettes or 1-cm path length, 1.0-ml quartz microcuvettes (Starna Cells). All measurements were taken at ambient temperature (22±2° C.). Absorption spectra were recorded on a Cary Model 100 spectrometer (Agilent). Fluorescence spectra were recorded on a Cary Eclipse fluorometer (Varian). Maximum absorption wavelength (λabs), extinction coefficient (εw), and maximum emission wavelength (λem) were taken in 10 mM HEPES, pH 7.3 buffer unless otherwise noted; reported values for ew are averages (n=3). Normalized spectra are shown for clarity.

microtubules = conditions: live-cell no-wash imaging
Procedure: Imaging was performed on a LSM880 confocal microscope (Zeiss) using the following configuration: excitation: 514 nm/emission: 526-615 nm (JF526); excitation: 594 nm/emission: 599-734 nm (JF585); excitation: 633 nm/emission: 638-759 nm (JF646 or SiR).

Chain of HaloTag protein (P0A3G2 other isoform, or with tags, fused parts or gaps with the stated changes): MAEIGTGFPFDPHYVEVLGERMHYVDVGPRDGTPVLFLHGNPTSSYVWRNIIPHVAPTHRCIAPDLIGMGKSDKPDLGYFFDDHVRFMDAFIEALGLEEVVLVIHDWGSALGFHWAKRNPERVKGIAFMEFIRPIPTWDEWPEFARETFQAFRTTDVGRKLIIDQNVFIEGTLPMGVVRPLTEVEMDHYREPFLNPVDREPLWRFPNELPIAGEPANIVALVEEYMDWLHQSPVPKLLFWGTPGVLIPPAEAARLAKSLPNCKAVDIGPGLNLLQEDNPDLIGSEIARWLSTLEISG

In the case of `O=C(NCCOCCOCCCCCCCl)c1ccc(C(=O)[O-])c(-c2c3cc(F)c(=[N+]4CC(F)(F)C4)cc-3oc3cc(N4CC(F)(F)C4)c(F)cc23)c1` [10HTL, JF526-HaloTag ligand], the “increase of absorbance upon conjugation to purified HaloTag protein” value (HaloTag protein) is reported as “substantial increase”.
For `Nc1nc(OCc2ccc(CNC(=O)c3ccc(C(=O)[O-])c(-c4c5cc(F)c(=[N+]6CC(F)(F)C6)cc-5oc5cc(N6CC(F)(F)C6)c(F)cc45)c3)cc2)c2nc[nH]c2n1` [10STL, JF526-SNAP-tag ligand], the “signal-to-background compared to JF525” value (histone H2B-SNAP-tag) was “superior signal-to-background”.
With `O=C([O-])c1ccccc1-c1c2cc(F)c(=[N+]3CC(F)(F)C3)cc-2oc2cc(N3CC(F)(F)C3)c(F)cc12` [dye 10, Janelia Fluor 526] the εmax ([1]; 0.1% TFA in TFE (rhodamine 10), 0.1% TFA in ethanol (Si-rhodamine 8)) was 118,000 M^−1cm^−1, the “KL-Z (lactone-zwitterion equilibrium constant)” value ([1]; 1:1 (v/v) dioxane:water, 0.01% triethylamine) was 0.0050 and the “signal-to-background compared to JF525” value (histone H2B-HaloTag) was “superior signal-to-background”. The “ϕ (fluorescence quantum yield)” value [2] was 0.87, the εw [3] was 19,000 M^−1cm^−1 and the λabs [3] was 526 nm. The λem [3] was 550 nm.
In the case of JF526-Taxol [10TXL], the “performance relative to SiR-tubulin (1TXL)” value (microtubules) is reported as “comparable performance”.
